Measured values from the supplement of paper PMC10307832.

Experiments:
Experiment in all cases: relative viability (nuclei count vs DMSO), 5 days (fraction); higher = more cells survive
[1] = compound: C1=CC2=NC=CN=C2C=C1/C=C/3\C(=O)NC(=O)S3 + CC(=O)Nc1cccc(-n2c(=O)n(C3CC3)c(=O)c3c(Nc4ccc(I)cc4F)n(C)c(=O)c(C)c32)c1 [Trametinib] (partner 0.02 µM)
Procedure, shortened: (§1)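 Dosing by pin tool came one day after lung cancer cell lines were seeded in 1536-well plates, using either one drug or a fixed anchor-drug dose plus five library-drug doses (not always all listed) in √10 steps. After 5 days, nuclei were counted on 4× images. Relative viability is treated-well nuclei count divided by vehicle-well nuclei count, and values are medians of duplicate plates.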

[2] = compound: C1=CC2=NC=CN=C2C=C1/C=C/3\C(=O)NC(=O)S3 + CC(=O)c1c(C)c2cnc(Nc3ccc(N4CCNCC4)cn3)nc2n(C2CCCC2)c1=O [Palbociclib] (partner 0.5 µM)
Procedure, shortened: as §1

[3] = compound: C1=CC2=NC=CN=C2C=C1/C=C/3\C(=O)NC(=O)S3 + CC1(C)CCC(c2ccc(Cl)cc2)=C(CN2CCN(c3ccc(C(=O)NS(=O)(=O)c4ccc(N[C@H](CCN5CCOCC5)CSc5ccccc5)c(S(=O)(=O)C(F)(F)F)c4)cc3)CC2)C1 [Navitoclax] (partner 0.5 µM)
Procedure, shortened: as §1

[4] = compound: C1=CC2=NC=CN=C2C=C1/C=C/3\C(=O)NC(=O)S3 + C[C@]1(O)C[C@@H](c2nc(-c3ccc4ccc(-c5ccccc5)nc4c3)c3c(N)nccn32)C1 [Linsitinib] (partner 1 µM)
Procedure, shortened: as §1

Cell Line | relative viability ([1]; first compound 0.02 µM) | relative viability ([1]; first compound 0.2 µM) | relative viability ([1]; first compound 0.6325 µM) | relative viability ([1]; first compound 2 µM) | relative viability ([2]; first compound 0.02 µM) | relative viability ([2]; first compound 0.2 µM) | relative viability ([2]; first compound 0.6325 µM) | relative viability ([2]; first compound 2 µM) | relative viability ([3]; first compound 0.02 µM) | relative viability ([3]; first compound 0.2 µM) | relative viability ([3]; first compound 0.6325 µM) | relative viability ([3]; first compound 2 µM) | relative viability ([4]; first compound 0.02 µM) | relative viability ([4]; first compound 0.2 µM) | relative viability ([4]; first compound 0.6325 µM) | relative viability ([4]; first compound 2 µM) | relative viability ([1]; first compound 0.06325 µM) | relative viability ([2]; first compound 0.06325 µM) | relative viability ([3]; first compound 0.06325 µM) | relative viability ([4]; first compound 0.06325 µM)
NCI-H1734 | 0.645 | 0.802 | 0.625 | 0.653 | 0.328 | 0.333 | 0.352 | 0.318 | 0.799 | 0.897 | 0.78 | 0.877 | 0.856 | 0.853 | 0.789 | 0.841 | – | – | – | –
NCI-H1755 | 0.719 | 0.823 | 0.772 | 0.764 | 0.428 | 0.461 | 0.432 | 0.446 | 0.881 | 1.03 | 0.975 | 0.936 | 0.927 | 1.02 | 0.978 | 0.979 | 0.642 | 0.429 | 0.947 | 0.995
NCI-H1792 | 0.363 | 0.542 | 0.386 | 0.248 | 0.652 | 0.663 | 0.595 | 0.425 | 0.597 | 0.564 | 0.658 | 0.401 | 0.519 | 0.557 | 0.456 | 0.593 | – | 0.471 | 0.621 | 0.309
NCI-H1793 | 0.411 | 0.434 | 0.421 | 0.529 | 0.289 | 0.282 | 0.336 | 0.288 | 0.509 | 0.496 | 0.36 | 0.83 | 0.785 | 0.747 | 0.919 | 0.679 | 0.334 | 0.296 | 0.439 | 0.99
NCI-H1915 | 0.289 | 0.323 | 0.301 | 0.291 | 0.538 | 0.561 | 0.512 | 0.533 | 0.757 | 0.806 | 0.732 | 0.797 | 1.1 | 1.11 | 1.12 | 1.08 | 0.305 | 0.578 | 0.796 | 1.18
NCI-H1944 | 0.394 | 0.395 | 0.38 | 0.394 | 0.287 | 0.352 | 0.312 | 0.331 | 1.02 | 1.08 | 0.95 | 1.04 | 1.18 | 1.22 | 0.944 | 1.12 | 0.384 | 0.289 | 1.05 | 1.22
NCI-H1975 | 0.273 | 0.355 | 0.33 | 0.241 | 0.465 | 0.563 | 0.56 | 0.394 | 0.998 | 1.04 | 0.974 | 0.981 | 0.819 | 1.09 | 0.884 | 0.934 | 0.361 | 0.683 | 1.12 | 1.01
NCI-H1993 | 0.516 | 0.504 | 0.452 | 0.506 | 0.623 | 0.58 | 0.603 | 0.331 | 0.759 | 0.921 | 0.956 | 0.743 | 0.712 | 0.751 | 0.795 | 0.713 | 0.527 | 0.68 | 0.982 | 0.797
NCI-H2009 | 0.256 | 0.284 | 0.252 | 0.232 | 0.241 | 0.216 | 0.171 | 0.16 | 1.2 | 1.15 | 1.21 | 1.23 | 1.16 | 1.26 | 1.18 | 1.2 | 0.356 | 0.241 | 1.2 | 1.26
NCI-H2023 | 0.511 | 0.516 | 0.428 | 0.427 | 0.405 | 0.314 | 0.337 | 0.27 | 1.01 | 1.02 | 1.02 | 0.978 | 0.626 | 0.611 | 0.568 | 0.632 | 0.539 | 0.408 | 1.11 | 0.787
NCI-H2085 | 0.477 | 0.56 | 0.511 | 0.51 | 0.494 | 0.485 | 0.448 | 0.46 | 1.09 | 1.17 | 1.13 | 1.08 | 0.807 | 0.826 | 0.806 | 0.969 | 0.427 | 0.436 | 0.975 | 0.886
NCI-H2087 | 0.178 | 0.17 | 0.179 | 0.233 | 0.195 | 0.215 | 0.268 | 0.222 | 0.88 | 1.07 | 1.04 | 0.96 | 1.07 | 0.996 | 0.937 | 0.954 | 0.188 | 0.229 | 1.2 | 0.911
NCI-H2126 | 0.481 | 0.538 | 0.533 | 0.48 | 0.329 | 0.358 | 0.369 | 0.339 | 0.739 | 0.914 | 0.842 | 0.727 | 0.682 | 0.715 | 0.688 | 0.685 | 0.591 | 0.404 | 0.909 | 0.773
NCI-H2228 | 0.51 | 0.562 | 0.398 | 0.338 | 0.591 | 0.79 | 0.705 | 0.606 | 1.15 | 1.44 | 0.671 | 0.607 | 0.622 | 1.08 | 0.55 | 0.609 | 0.556 | 0.665 | 0.868 | 0.447
NCI-H2347 | 0.296 | 0.225 | 0.312 | 0.156 | 0.456 | 0.415 | 0.443 | 0.429 | 0.756 | 0.904 | 0.863 | 0.734 | 1.01 | 0.957 | 0.993 | 0.92 | 0.295 | 0.382 | 0.443 | 0.957
NCI-H2405 | 0.622 | 0.648 | 0.623 | 0.399 | 0.517 | 0.528 | 0.512 | 0.436 | 0.751 | 0.938 | 0.947 | 0.755 | 0.96 | 1.03 | 0.959 | 0.915 | 0.765 | 0.585 | 1.14 | 1.08
